Structures can show the parent of a compound that is named as a salt. Bounds are passed on as bounds.

Experiment [1] has as its target T1, DNA topoisomerase 1 (Homo sapiens) (UniProt P11387).
T1 sequence (whole entry): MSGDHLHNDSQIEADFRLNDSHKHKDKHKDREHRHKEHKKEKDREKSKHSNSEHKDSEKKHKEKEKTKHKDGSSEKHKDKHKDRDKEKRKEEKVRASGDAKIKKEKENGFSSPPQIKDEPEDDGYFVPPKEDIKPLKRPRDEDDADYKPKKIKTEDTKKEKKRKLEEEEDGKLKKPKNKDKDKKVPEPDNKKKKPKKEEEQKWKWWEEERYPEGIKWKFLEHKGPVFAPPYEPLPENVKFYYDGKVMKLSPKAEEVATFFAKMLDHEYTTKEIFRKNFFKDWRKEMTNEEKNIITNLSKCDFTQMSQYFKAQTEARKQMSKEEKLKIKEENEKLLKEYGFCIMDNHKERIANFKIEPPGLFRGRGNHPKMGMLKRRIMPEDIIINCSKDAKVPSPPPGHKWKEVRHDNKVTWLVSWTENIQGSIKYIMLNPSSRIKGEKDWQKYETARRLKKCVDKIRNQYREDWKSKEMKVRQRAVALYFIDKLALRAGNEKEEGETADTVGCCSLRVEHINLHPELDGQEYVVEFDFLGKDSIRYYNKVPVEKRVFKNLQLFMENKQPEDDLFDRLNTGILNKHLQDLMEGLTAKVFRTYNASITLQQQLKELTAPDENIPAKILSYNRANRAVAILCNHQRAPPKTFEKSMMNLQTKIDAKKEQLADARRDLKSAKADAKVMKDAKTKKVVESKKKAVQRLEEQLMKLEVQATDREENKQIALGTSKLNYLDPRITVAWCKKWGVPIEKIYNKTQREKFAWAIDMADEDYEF
Kind of experiment: Inhibition of human topoisomerase-1 assessed as inhibition of relaxation of supercoiled pBR322 plasmid DNA at 100 uM measured after 1 hr by ethidium bromide staining based agarose gel electrophoresis relative to control.

The target of experiment [2] is T1, DNA topoisomerase 1 (Homo sapiens). The experiment is described as follows: Inhibition of human topoisomerase-1 assessed as inhibition of relaxation of supercoiled pBR322 plasmid DNA at 20 uM measured after 1 hr by ethidium bromide staining based agarose gel electrophoresis relative to control.
In experiment [3] the target is DNA topoisomerase 2-alpha (Homo sapiens) (UniProt P11388). Kind of experiment: Inhibition of human topoisomerase-2 alpha assessed as inhibition of relaxation of supercoiled pBR322 plasmid DNA at 100 uM measured after 1 hr by ethidium bromide staining based agarose gel electrophoresis relative to control.
Chain of DNA topoisomerase 2-alpha (Homo sapiens) (P11388 whole entry): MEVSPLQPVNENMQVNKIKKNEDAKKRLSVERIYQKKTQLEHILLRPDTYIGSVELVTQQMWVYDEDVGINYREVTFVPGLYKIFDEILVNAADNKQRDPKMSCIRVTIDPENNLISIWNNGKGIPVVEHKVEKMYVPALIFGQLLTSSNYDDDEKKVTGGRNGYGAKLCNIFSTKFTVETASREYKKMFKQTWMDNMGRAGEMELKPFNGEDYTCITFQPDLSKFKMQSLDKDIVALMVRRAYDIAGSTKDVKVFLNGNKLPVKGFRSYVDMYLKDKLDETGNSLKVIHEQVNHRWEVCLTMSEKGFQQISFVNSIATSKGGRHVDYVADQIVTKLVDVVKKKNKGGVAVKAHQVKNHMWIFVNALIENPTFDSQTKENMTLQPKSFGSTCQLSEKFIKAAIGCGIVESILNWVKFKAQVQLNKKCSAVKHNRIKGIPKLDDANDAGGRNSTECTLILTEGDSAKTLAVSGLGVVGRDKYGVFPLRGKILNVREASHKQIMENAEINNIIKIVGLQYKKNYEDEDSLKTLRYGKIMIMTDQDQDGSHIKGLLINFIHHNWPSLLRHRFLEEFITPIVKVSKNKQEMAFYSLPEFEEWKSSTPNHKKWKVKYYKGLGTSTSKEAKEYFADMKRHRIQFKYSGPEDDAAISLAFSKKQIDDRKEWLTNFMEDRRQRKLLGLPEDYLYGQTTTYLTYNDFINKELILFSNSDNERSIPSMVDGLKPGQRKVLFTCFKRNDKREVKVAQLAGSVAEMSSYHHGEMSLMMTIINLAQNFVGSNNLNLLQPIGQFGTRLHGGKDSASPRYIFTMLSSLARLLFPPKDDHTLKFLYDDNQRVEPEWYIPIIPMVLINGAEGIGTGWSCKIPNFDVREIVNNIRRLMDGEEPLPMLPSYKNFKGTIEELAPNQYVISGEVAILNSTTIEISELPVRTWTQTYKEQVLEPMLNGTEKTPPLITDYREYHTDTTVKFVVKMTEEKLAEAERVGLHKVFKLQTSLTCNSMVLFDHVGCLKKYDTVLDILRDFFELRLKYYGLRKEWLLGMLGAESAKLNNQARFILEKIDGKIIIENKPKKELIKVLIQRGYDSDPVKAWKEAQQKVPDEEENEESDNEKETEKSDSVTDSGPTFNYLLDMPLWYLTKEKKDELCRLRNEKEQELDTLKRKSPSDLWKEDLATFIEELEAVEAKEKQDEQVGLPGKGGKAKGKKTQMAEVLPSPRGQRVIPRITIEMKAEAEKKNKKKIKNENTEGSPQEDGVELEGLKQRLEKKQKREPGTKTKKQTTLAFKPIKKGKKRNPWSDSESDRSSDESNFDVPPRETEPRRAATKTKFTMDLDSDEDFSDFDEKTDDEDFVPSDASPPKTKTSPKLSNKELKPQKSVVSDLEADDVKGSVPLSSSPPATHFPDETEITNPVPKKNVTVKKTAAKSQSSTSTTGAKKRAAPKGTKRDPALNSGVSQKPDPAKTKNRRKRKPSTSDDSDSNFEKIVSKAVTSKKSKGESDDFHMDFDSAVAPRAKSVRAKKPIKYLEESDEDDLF
Experiment [4] is described as follows: Antiproliferative activity against human T47D cells measured after 72 hrs by CCK8 assay. The experiment is classed as functional, cell-based. A general note: Formazan colour is commonly taken as a measure of viable cells.
Experiment [5] can be described thus: Antiproliferative activity against human DU145 cells measured after 72 hrs by CCK8 assay. It counts as functional, cell-based. Particulars: DU-145, 72 h.
Experiment [6] can be described thus: Antiproliferative activity against human HCT15 cells measured after 72 hrs by CCK8 assay. It counts as functional, cell-based. Particulars: HCT-15, 72 h.
Experiment [7] can be described thus: Antiproliferative activity against human MCF7 cells measured after 72 hrs by CCK8 assay. The following applies: MCF7, 72 h. It counts as functional, cell-based.
Experiment [8] has as its target DNA topoisomerase 2-alpha (Homo sapiens) (UniProt P11388). The experiment is described as follows: Inhibition of human topoisomerase-2 alpha assessed as inhibition of relaxation of supercoiled pBR322 plasmid DNA at 20 uM measured after 1 hr by ethidium bromide staining based agarose gel electrophoresis relative to control.

Regarding `CCOc1ccc2c(c1)Oc1cc(OC(=O)c3ccccc3Cl)ccc1C21c2ccccc2C(=O)N1/N=C/c1ccccc1OC` (configuration not stated), the inhibition (in general, the relative decrease from the control value, in per cent) in experiment [1] is 55.2%; in experiment [2], 30%; in experiment [3], 7.8%. Besides, the 50% inhibitory concentration (IC50) (in general, the midpoint of a concentration-inhibition curve) in experiment [4] was greater than 50 µM; in experiment [5] it was 6.3 µM; in experiment [6] it was greater than 50 µM; in experiment [7], greater than 50 µM.

In the case of `CCOc1ccc2c(c1)Oc1cc(OC(=O)c3ccccc3OC)ccc1C21c2ccccc2C(=O)N1/N=C/c1ccccc1OC(=O)c1ccccc1OC` (configuration not stated), the inhibition in experiment [1] came out at 0%; in experiment [3], 10.3%. The IC50 was 6.22 µM in experiment [4], greater than 50 µM in experiment [5], 1.56 µM in experiment [6] and greater than 50 µM in experiment [7].

With `CCOc1ccc2c(c1)Oc1cc(OC(=O)c3ccccc3OC)ccc1C21c2ccccc2C(=O)N1/N=C/c1ccc(OC)c(OC(=O)c2ccccc2OC)c1` (configuration not stated), the inhibition in experiment [1] amounted to 73.1%; in experiment [2], 13.9%; in experiment [3] it was 4.9%. Also, the concentration for half-maximal inhibition (IC50) in experiment [4] is 23.6 µM; in experiment [5], greater than 50 µM; in experiment [6], greater than 50 µM; in experiment [7], greater than 50 µM.

On to `CCOc1ccc2c(c1)Oc1cc(OC(=O)c3ccccc3)ccc1C21c2ccccc2C(=O)N1/N=C/c1cccc(OC(=O)c2ccccc2)c1` (configuration not stated), for which the inhibition in experiment [1] stood at 0%; in experiment [3] it was 6.7%. Moreover, the half-maximal inhibitory concentration (IC50) in experiment [4] is greater than 50 µM; in experiment [5], greater than 50 µM; in experiment [6] it was 28.9 µM; in experiment [7], greater than 50 µM.

On to `CCOc1ccc2c(c1)Oc1cc(OC(=O)c3ccccc3OC)ccc1C21c2ccccc2C(=O)N1/N=C/c1ccccc1OC` (configuration not stated), for which the inhibition was found to be 74% in experiment [1], 6.8% in experiment [2] and 8.1% in experiment [3]. For the same compound, the half-inhibitory concentration (IC50) in experiment [4] was 21.4 µM; in experiment [5] it was greater than 50 µM; in experiment [6] it was 1.92 µM; in experiment [7], greater than 50 µM.

Regarding `CC[C@@]1(O)C(=O)OCc2c1cc1n(c2=O)Cc2cc3ccccc3nc2-1` [CAMPTOTHECIN], the half-maximal inhibitory concentration (IC50) was found to be 0.59 µM in experiment [4], 0.38 µM in experiment [5], 0.35 µM in experiment [6] and 4.54 µM in experiment [7].

As to `CCOc1ccc2c(c1)Oc1cc(O)ccc1C21c2ccccc2C(=O)N1/N=C/c1ccc(O)cc1` (configuration not stated), the inhibition is 36.5% in experiment [1], 0% in experiment [2], 73.8% in experiment [3] and 3.3% in experiment [8]. The concentration for half-maximal inhibition (IC50) in experiment [4] was 0.78 µM; in experiment [5], 1.06 µM; in experiment [6] it was 0.03 µM; in experiment [7], 4.66 µM.

Consider `CCOc1ccc2c(c1)Oc1cc(OC(=O)c3ccccc3Cl)ccc1C21c2ccccc2C(=O)N1/N=C/c1ccc(Cl)cc1` (configuration not stated), for which the inhibition was determined as 90.5% in experiment [1], 36.4% in experiment [2], 83.7% in experiment [3] and 1.5% in experiment [8]. In addition, the IC50 in experiment [4] was greater than 50 µM; in experiment [5], greater than 50 µM; in experiment [6] it was 28.7 µM; in experiment [7], greater than 50 µM.

Take `CCOc1ccc2c(c1)Oc1cc(O)ccc1C21c2ccccc2C(=O)N1/N=C/c1ccc(OC)cc1` (configuration not stated): the inhibition amounted to 0.8% in experiment [1], 65% in experiment [3] and 3.6% in experiment [8].

Turning to `COc1cccc2c1C(=O)c1c(O)c3c(c(O)c1C2=O)C[C@@](O)(C(=O)CO)C[C@@H]3O[C@H]1C[C@H](N)[C@H](O)[C@H](C)O1` [DOXORUBICIN HYDROCHLORIDE], the values for the half-maximal inhibitory concentration (IC50) in experiment [4], in experiment [5] and in experiment [6] were 1.5 µM, 1.59 µM and 0.74 µM, respectively.

Consider `CCOc1ccc2c(c1)Oc1cc(OC(=O)c3ccccc3OC)ccc1C21c2ccccc2C(=O)N1/N=C/c1ccc(OC)cc1` (configuration not stated), for which the inhibition in experiment [1] was 35.6%; in experiment [2], 17.3%; in experiment [3] it was 4.8%.

`CCOc1ccc2c(c1)Oc1cc(OC(=O)c3ccccc3)ccc1C21c2ccccc2C(=O)N1/N=C/c1ccccc1OC(=O)c1ccccc1` (configuration not stated): the inhibition in experiment [1] turned out to be 73.2%; in experiment [2] it was 55.9%; in experiment [3], 21.5%. Besides, the IC50 in experiment [4] was greater than 50 µM; in experiment [5], greater than 50 µM; in experiment [6] it was 8.29 µM; in experiment [7] it was greater than 50 µM.

For `CCOc1ccc2c(c1)Oc1cc(OC(=O)c3ccccc3OC)ccc1C21c2ccccc2C(=O)N1/N=C/c1ccc(OC(=O)c2ccccc2OC)cc1` (configuration not stated), the inhibition is 0% in experiment [1] and 11.4% in experiment [3]. Also, the IC50 in experiment [4] is 44.8 µM; in experiment [5] it was greater than 50 µM; in experiment [6] it was greater than 50 µM; in experiment [7], greater than 50 µM.

As for `CCOc1ccc2c(c1)Oc1cc(OC(=O)c3ccccc3[N+](=O)[O-])ccc1C21c2ccccc2C(=O)N1/N=C/c1ccccc1OC(=O)c1ccccc1[N+](=O)[O-]` (configuration not stated), the inhibition is 0% in experiment [1] and 25.7% in experiment [3]. The 50% inhibitory concentration (IC50) was 5.45 µM in experiment [4], greater than 50 µM in experiment [5], greater than 50 µM in experiment [6] and greater than 50 µM in experiment [7].

On to `CCOc1ccc2c(c1)Oc1cc(OC(=O)c3ccccc3Cl)ccc1C21c2ccccc2C(=O)N1/N=C/c1ccccc1[N+](=O)[O-]` (configuration not stated), for which the inhibition stood at 39.8% in experiment [1], 0% in experiment [2] and 5.4% in experiment [3]. The IC50 in experiment [4] is 7.75 µM; in experiment [5] it was greater than 50 µM; in experiment [6], 47 µM; in experiment [7] it was greater than 50 µM.

`CCOc1ccc2c(c1)Oc1cc(OC(=O)c3ccccc3Cl)ccc1C21c2ccccc2C(=O)N1/N=C/c1ccc(OC)c(OC(=O)c2ccccc2Cl)c1` (configuration not stated): the inhibition in experiment [1] amounted to 86.6%; in experiment [2], 1.7%; in experiment [3], 4.8%.

In the case of `CCOc1ccc2c(c1)Oc1cc(OC(=O)c3ccccc3)ccc1C21c2ccccc2C(=O)N1/N=C/c1ccc(OC)cc1` (configuration not stated), the inhibition in experiment [1] was found to be 44.6%; in experiment [2] it was 9.8%; in experiment [3], 5.4%.

With `CCOc1ccc2c(c1)Oc1cc(O)ccc1C21c2ccccc2C(=O)N1/N=C/c1ccc(Cl)cc1` (configuration not stated), the inhibition in experiment [1] was 22.7%; in experiment [3], 81.6%; in experiment [8] it was 1.3%. In addition, the half-maximal inhibitory concentration (IC50) in experiment [4] was found to be 5.74 µM; in experiment [5], 2.3 µM; in experiment [6], 2.19 µM; in experiment [7], 9.77 µM.

Consider `CCOc1ccc2c(c1)Oc1cc(OC(=O)c3ccccc3OC)ccc1C21c2ccccc2C(=O)N1/N=C/c1ccc(Cl)cc1Cl` (configuration not stated), for which the values for the inhibition in experiment [1], in experiment [2] and in experiment [3] were 69.2%, 10% and 25%, respectively.

Turning to `CCOc1ccc2c(c1)Oc1cc(OC(=O)c3ccccc3[N+](=O)[O-])ccc1C21c2ccccc2C(=O)N1/N=C/c1ccc(OC)cc1` (configuration not stated), the inhibition in experiment [1] was determined as 54.6%; in experiment [2], 3.5%; in experiment [3] it was 6%.

With `CCOc1ccc2c(c1)Oc1cc(O)ccc1C21c2ccccc2C(=O)N1/N=C/c1ccc(Cl)cc1Cl` (configuration not stated), the inhibition was found to be 12.3% in experiment [1], 80% in experiment [3] and 2.3% in experiment [8]. Also, the 50% inhibitory concentration (IC50) was greater than 50 µM in experiment [4], greater than 50 µM in experiment [5], 3.17 µM in experiment [6] and 23.2 µM in experiment [7].

Turning to `CCOc1ccc2c(c1)Oc1cc(OC(=O)c3ccccc3[N+](=O)[O-])ccc1C21c2ccccc2C(=O)N1/N=C/c1ccc(OC)c(OC(=O)c2ccccc2[N+](=O)[O-])c1` (configuration not stated), the figures for the inhibition in experiment [1], in experiment [2] and in experiment [3] were 87.2%, 15.8% and 3.9%, respectively.

As for `CCOc1ccc2c(c1)Oc1cc(O)ccc1C21c2ccccc2C(=O)N1/N=C/c1ccccc1OC` (configuration not stated), the values for the inhibition in experiment [1], in experiment [3] and in experiment [8] were 28.1%, 58.3% and 3.3%, respectively. The half-inhibitory concentration (IC50) in experiment [4] is greater than 50 µM; in experiment [5] it was greater than 50 µM; in experiment [6] it was 0.67 µM; in experiment [7] it was greater than 50 µM.

Take `CCOc1ccc2c(c1)Oc1cc(OC(=O)c3ccccc3Cl)ccc1C21c2ccccc2C(=O)N1/N=C/c1ccc(OC(=O)c2ccccc2Cl)cc1` (configuration not stated): the inhibition in experiment [1] was found to be 30.1%; in experiment [2] it was 24.6%; in experiment [3] it was 13.1%.

The record behind these values is ChEMBL document CHEMBL3877252, “Fluorescein hydrazones: A series of novel non-intercalative topoisomerase IIα catalytic inhibitors induce G1 arrest and apoptosis in breast and colon cancer cells” (Eur J Med Chem, 2017).
